The subject of data set [1] is Oryza sativa. The data set can be described thus: Safener indices, ratio of compound effect of Oryza sativa (rice) growth rate to relieving activity against bensulfuron-methyl induced injury to Oryza sativa growth rate at 10 uM.
Data set [2] relates to Oryza sativa. In words: Relieving activity against bensulfuron-methyl induced injury to Oryza sativa (rice) assessed as growth rate at 10 uM (Rbv = 46 to 53%). The class given is functional.
Data set [3] deals with Oryza sativa. In words: Effect on Oryza sativa (rice) assessed as growth rate at 10 uM relative to control. In kind it is organism-based. To be noted: in vivo.
In data set [4] the test system is Oryza sativa. In words: Relieving activity against bensulfuron-methyl induced injury to Oryza sativa (rice) assessed as growth rate at 0.1 uM (Rbv = 46 to 53%). The class given is functional.
Data set [5] deals with Oryza sativa. In words: Safener indices, ratio of compound effect of Oryza sativa (rice) growth rate to relieving activity against bensulfuron-methyl induced injury to Oryza sativa growth rate at 1 uM.
Data set [6] deals with Oryza sativa. The data set can be described thus: Effect on Oryza sativa (rice) assessed as growth rate at 0.1 uM relative to control. The class given is organism-based. Conditions: in vivo.
Data set [7] is described as follows: Hydrophobicity, log K of the compound. In kind it is physicochemical. Conditions: octanol/water.
The subject of data set [8] is Oryza sativa. The data set can be described thus: Relieving activity against bensulfuron-methyl induced injury to Oryza sativa (rice) assessed as growth rate at 1 uM (Rbv = 46 to 53%). The class given is functional.
In data set [9] the test system is Oryza sativa. In words: Safener indices, ratio of compound effect of Oryza sativa (rice) growth rate to relieving activity against bensulfuron-methyl induced injury to Oryza sativa growth rate at 0.1 uM.
The test system of data set [10] is Oryza sativa. In words: Effect on Oryza sativa (rice) assessed as growth rate at 1 uM relative to control. In kind it is organism-based. Conditions: in vivo.

Take `COc1ccc(NC(=O)N[C@@H](C)c2ccccc2)cc1`: the Ratio with Oryza sativa [1] was determined as 81; in the data set on Oryza sativa [5], 57; in the data set on Oryza sativa [9], 6. The Activity with Oryza sativa [2] was found to be 91%; in the data set on Oryza sativa [3], 95%; in the data set on Oryza sativa [4], 59%; with Oryza sativa [6], 104%; in the data set on Oryza sativa [8] it was 81%; in the data set on Oryza sativa [10], 99%. Besides, the “log K” value in data set [7] was 0.211.

Regarding `COc1cccc(NC(=O)N[C@@H](C)c2ccccc2)c1`, the values for the Ratio in the data set on Oryza sativa [1], in the data set on Oryza sativa [5] and in the data set on Oryza sativa [9] were 94, 70 and 22, respectively. In addition, the Activity in the data set on Oryza sativa [2] was found to be 97%; in the data set on Oryza sativa [3], 99%; with Oryza sativa [4] it was 65%; in the data set on Oryza sativa [6] it was 101%; in the data set on Oryza sativa [8] it was 86%; in the data set with Oryza sativa [10], 99%. The “log K” value in [7] amounted to 0.277.

Regarding `C[C@H](NC(=O)Nc1ccccc1F)c1ccccc1`, the values for the Ratio in the data set with Oryza sativa [1], in the data set with Oryza sativa [5] and with Oryza sativa [9] were 68, 65 and 47, respectively. Further, the Activity was found to be 78% with Oryza sativa [2]; 65% in the data set on Oryza sativa [3]; 73% in the data set with Oryza sativa [4]; 98% in the data set with Oryza sativa [6]; 81% with Oryza sativa [8]; 92% with Oryza sativa [10]. Moreover, the “log K” value in data set [7] is 0.367.

Take `C[C@@H](NC(=O)Nc1ccccc1F)c1ccccc1`: the values for the Ratio with Oryza sativa [1], in the data set with Oryza sativa [5] and in the data set on Oryza sativa [9] were 62, 32 and 3, respectively. Besides, the Activity in the data set with Oryza sativa [2] was 76%; with Oryza sativa [3] it was 77%; in the data set with Oryza sativa [4], 47%; in the data set on Oryza sativa [6], 97%; in the data set on Oryza sativa [8], 64%; with Oryza sativa [10], 95%. Also, the “log K” value in data set [7] worked out at 0.367.

Consider `C[C@@H](NC(=O)Nc1cccc(F)c1)c1ccccc1`, for which the Ratio with Oryza sativa [1] was 44; with Oryza sativa [5], 22; in the data set with Oryza sativa [9], -4. In addition, the Activity with Oryza sativa [2] is 67%; in the data set with Oryza sativa [3] it was 84%; in the data set on Oryza sativa [4] it was 47%; in the data set with Oryza sativa [6], 99%; in the data set with Oryza sativa [8] it was 57%; in the data set with Oryza sativa [10] it was 95%. The “log K” value in data set [7] was 0.363.

As for `C[C@H](NC(=O)Nc1cccc(F)c1)c1ccccc1`, the Ratio in the data set on Oryza sativa [1] is 62; in the data set on Oryza sativa [5], 51; with Oryza sativa [9], 21. Besides, the Activity was 79% in the data set on Oryza sativa [2]; 88% with Oryza sativa [3]; 59% in the data set with Oryza sativa [4]; 97% with Oryza sativa [6]; 74% in the data set with Oryza sativa [8]; 94% with Oryza sativa [10]. In addition, the “log K” value in data set [7] is 0.363.

`C[C@@H](NC(=O)Nc1ccc(F)cc1)c1ccccc1`: the results for the Ratio in the data set on Oryza sativa [1], in the data set with Oryza sativa [5] and with Oryza sativa [9] were 52, 16 and -3, respectively. Besides, the Activity was determined as 73% with Oryza sativa [2]; 92% in the data set with Oryza sativa [3]; 47% in the data set with Oryza sativa [4]; 98% with Oryza sativa [6]; 55% in the data set with Oryza sativa [8]; 96% with Oryza sativa [10]. In [7], the “log K” value worked out at 0.307.

Take `C[C@H](NC(=O)Nc1ccc(F)cc1)c1ccccc1`: the Ratio came to 74 in the data set on Oryza sativa [1], 47 with Oryza sativa [5] and 7 in the data set with Oryza sativa [9]. The Activity in the data set with Oryza sativa [2] is listed as 86%; in the data set with Oryza sativa [3], 85%; in the data set on Oryza sativa [4], 51%; in the data set on Oryza sativa [6], 96%; in the data set on Oryza sativa [8] it was 72%; with Oryza sativa [10], 97%. For the same compound, in data set [7], the “log K” value amounted to 0.307.

As for `C[C@@H](NC(=O)Nc1ccccc1Cl)c1ccccc1`, the Ratio in the data set with Oryza sativa [1] was found to be 67; in the data set with Oryza sativa [5], 21; in the data set on Oryza sativa [9], 3. For the same compound, the Activity with Oryza sativa [2] worked out at 83%; with Oryza sativa [3], 93%; in the data set on Oryza sativa [4], 53%; in the data set on Oryza sativa [6], 101%; in the data set on Oryza sativa [8] it was 63%; with Oryza sativa [10] it was 103%. The “log K” value in data set [7] is on record as 0.486.

Take `COc1ccccc1NC(=O)N[C@H](C)c1ccccc1`: the Ratio was 42 in the data set with Oryza sativa [1], -4 with Oryza sativa [5] and -1 in the data set on Oryza sativa [9]. Also, the Activity in the data set on Oryza sativa [2] was 72%; in the data set with Oryza sativa [3], 96%; in the data set with Oryza sativa [4], 54%; in the data set on Oryza sativa [6], 100%; in the data set on Oryza sativa [8] it was 55%; in the data set with Oryza sativa [10], 105%. The “log K” value in data set [7] came to 0.343.

In the case of `COc1ccccc1NC(=O)N[C@@H](C)c1ccccc1`, the Ratio in the data set on Oryza sativa [1] turned out to be 46; in the data set with Oryza sativa [5] it was 28; in the data set on Oryza sativa [9], 9. The Activity amounted to 74% with Oryza sativa [2]; 95% with Oryza sativa [3]; 55% with Oryza sativa [4]; 98% in the data set with Oryza sativa [6]; 68% in the data set on Oryza sativa [8]; 99% with Oryza sativa [10]. Also, the “log K” value in data set [7] came out at 0.343.

`COc1cccc(NC(=O)N[C@H](C)c2ccccc2)c1`: the Ratio is 57 in the data set with Oryza sativa [1], 27 with Oryza sativa [5] and -5 with Oryza sativa [9]. The Activity is given as 73% in the data set on Oryza sativa [2]; 70% in the data set on Oryza sativa [3]; 54% in the data set with Oryza sativa [4]; 104% in the data set on Oryza sativa [6]; 63% in the data set with Oryza sativa [8]; 92% in the data set on Oryza sativa [10]. The “log K” value in [7] is on record as 0.277.

Consider `COc1ccc(NC(=O)N[C@H](C)c2ccccc2)cc1`, for which the Ratio in the data set with Oryza sativa [1] is listed as 56; in the data set with Oryza sativa [5], 7; in the data set with Oryza sativa [9], -11. In addition, the Activity with Oryza sativa [2] is given as 78%; with Oryza sativa [3], 93%; in the data set on Oryza sativa [4] it was 53%; in the data set with Oryza sativa [6] it was 109%; in the data set with Oryza sativa [8], 58%; in the data set on Oryza sativa [10], 101%. Besides, the “log K” value in data set [7] is reported as 0.211.

Turning to `CC(=O)c1ccccc1NC(=O)N[C@H](C)c1ccccc1`, the Ratio is on record as 49 with Oryza sativa [1], 10 in the data set on Oryza sativa [5] and 1 in the data set with Oryza sativa [9]. Besides, the Activity in the data set with Oryza sativa [2] turned out to be 71%; with Oryza sativa [3], 89%; in the data set with Oryza sativa [4] it was 46%; in the data set with Oryza sativa [6], 96%; with Oryza sativa [8], 51%; in the data set on Oryza sativa [10], 95%. In data set [7], the “log K” value is recorded as 0.432.

For `CC(=O)c1ccccc1NC(=O)N[C@@H](C)c1ccccc1`, the values for the Ratio in the data set with Oryza sativa [1], in the data set on Oryza sativa [5] and in the data set with Oryza sativa [9] were 50, 35 and 9, respectively. Besides, the Activity worked out at 73% with Oryza sativa [2]; 96% in the data set with Oryza sativa [3]; 53% with Oryza sativa [4]; 100% in the data set on Oryza sativa [6]; 65% in the data set on Oryza sativa [8]; 97% with Oryza sativa [10]. In addition, in [7], the “log K” value turned out to be 0.432.

Take `CC(=O)c1cccc(NC(=O)N[C@H](C)c2ccccc2)c1`: the Ratio in the data set on Oryza sativa [1] stood at 41; in the data set on Oryza sativa [5], 25; with Oryza sativa [9], 5. The Activity with Oryza sativa [2] was determined as 62%; with Oryza sativa [3], 73%; in the data set on Oryza sativa [4] it was 50%; in the data set on Oryza sativa [6], 98%; with Oryza sativa [8] it was 57%; in the data set on Oryza sativa [10] it was 88%. Further, the “log K” value in [7] is listed as 0.245.

With `CC(=O)c1cccc(NC(=O)N[C@@H](C)c2ccccc2)c1`, the values for the Ratio with Oryza sativa [1], in the data set with Oryza sativa [5] and with Oryza sativa [9] were 80, 38 and 35, respectively. Besides, the Activity is listed as 89% with Oryza sativa [2]; 94% with Oryza sativa [3]; 65% with Oryza sativa [4]; 96% in the data set on Oryza sativa [6]; 83% with Oryza sativa [8]; 95% in the data set with Oryza sativa [10]. The “log K” value in [7] was 0.245.

For `CC(=O)c1ccc(NC(=O)N[C@H](C)c2ccccc2)cc1`, the Ratio with Oryza sativa [1] was found to be 65; with Oryza sativa [5], 27; in the data set on Oryza sativa [9], 4. Also, the Activity stood at 79% in the data set with Oryza sativa [2]; 84% in the data set on Oryza sativa [3]; 49% with Oryza sativa [4]; 96% in the data set on Oryza sativa [6]; 59% in the data set with Oryza sativa [8]; 93% in the data set on Oryza sativa [10]. In data set [7], the “log K” value is on record as 0.227.

As to `CC(=O)c1ccc(NC(=O)N[C@@H](C)c2ccccc2)cc1`, the Ratio in the data set with Oryza sativa [1] was 74; in the data set on Oryza sativa [5] it was 63; in the data set with Oryza sativa [9], 24. The Activity with Oryza sativa [2] is on record as 86%; in the data set with Oryza sativa [3], 96%; in the data set on Oryza sativa [4], 60%; in the data set with Oryza sativa [6], 99%; in the data set on Oryza sativa [8], 81%; in the data set on Oryza sativa [10] it was 99%. In addition, the “log K” value in [7] was 0.227.

As for `CCOC(=O)c1ccc(NC(=O)N[C@@H](C)c2ccccc2)cc1`, the Ratio in the data set on Oryza sativa [1] is 86; in the data set on Oryza sativa [5], 76; with Oryza sativa [9], 53. In addition, the Activity in the data set on Oryza sativa [2] was 92%; in the data set with Oryza sativa [3], 92%; in the data set on Oryza sativa [4], 76%; in the data set with Oryza sativa [6] it was 99%; with Oryza sativa [8] it was 87%; in the data set with Oryza sativa [10], 97%. Moreover, the “log K” value in data set [7] was 0.415.

Source of the values: ChEMBL document CHEMBL3045406, “Enantioselective Relieving Activity of α-Methylbenzylphenylureas toward Bensulfuron-methyl Injury to Rice (Oryza sativa)” (Biosci Biotechnol Biochem, 1999).
